Holding throughout (type): in vivo
Series [1] in a line: Blood glucose after capsule-in-capsule insulin/SNAC with ranitidine hydrochloride. Particulars: dogs. As for the experimental part:
In particular, a size 0 capsule containing insulin and SNAC was placed inside an empty size 00 capsule, which was placed inside a size 000 capsule, optionally containing ranitidine hydrochloride. The capsules were administered to dogs and blood glucose levels were assessed. Results are shown in FIG. 3 (♦—with ranitidine hydrochloride; ▪—without ranitidine hydrochloride).

Series [2] in a line: Blood glucose after oral capsules of insulin/SNAC/ranitidine hydrochloride. Particulars: rats. The protocol: Rats were orally administered capsules comprising 0.3 mg insulin/10 mg SNAC/10 mg ranitidine hydrochloride, and blood glucose levels were measured at periodic intervals. Results are shown in FIG. 2A (each line represents one treated animal). For comparison, rats were orally administered capsules comprising 0.3 mg insulin/10 mg SNAC (i.e., without ranitidine hydrochloride), and blood glucose levels were assessed. Results are shown in FIG. 2B (each line represents one treated animal).

Series [3] can be described thus: Blood glucose after intravenous ranitidine hydrochloride plus oral insulin/SNAC capsules. The note with it: rats. The protocol:
Rats were administered ranitidine hydrochloride (10 mg/kg) intravenously one hour prior to oral dosing with capsules comprising 0.3 mg insulin/20 mg SNAC. In vivo delivery of insulin was measured indirectly by assessing blood glucose levels at periodic intervals using a glucometer. Results are shown in FIG. 1A (each line represents one treated animal). For comparison, rats were orally administered capsules comprising 0.3 mg insulin/20 mg SNAC without administration of ranitidine hydrochloride, and blood glucose levels were assessed. Results are shown in FIG. 1B (each line represents one treated animal).

Consider insulin, for which the blood glucose levels result in series [1] (capsule-in-capsule 3.6 mg insulin and 500 mg SNAC inner, 150 mg ranitidine hydrochloride outer, compared with no ranitidine hydrochloride, FIG. 3) is “lower”; in series [2] (oral capsules 0.3 mg insulin/10 mg SNAC/10 mg ranitidine hydrochloride compared with 0.3 mg insulin/10 mg SNAC, FIG. 2A vs 2B), “lower”; in series [3] (oral capsules 0.3 mg insulin/20 mg SNAC, ranitidine hydrochloride 10 mg/kg intravenously one hour prior, compared with no ranitidine hydrochloride, FIG. 1A vs 1B) it was “lower”. In addition, the bioavailability of insulin result in series [1] (capsule-in-capsule with 150 mg ranitidine hydrochloride vs without, inferred from blood glucose) is given as “greater”; in series [2] (oral capsules with 10 mg ranitidine hydrochloride vs without, inferred from blood glucose), “greater”; in series [3] (oral capsules 0.3 mg insulin/20 mg SNAC with i.v. ranitidine hydrochloride vs without, inferred from blood glucose), “greater”.
